Test results as given in patent US12679849B2, “Macrocyclic compounds as STING agonists” (LUPIN LIMITED, priority 2019, dated 2026).

How the values were obtained:
[1] = tested on: IFNβ; experiment: Cytokine (IFNβ) secretion in serum samples from CT-26 tumor bearing BALB/c mice; type: in vivo, mouse; details: serum of CT-26 tumor-bearing BALB/c mice, 0.5 mg/kg, 3.5 h
Method: Quantification of the Cytokine Secretion in Serum Samples from the CT-26 Tumor Bearing BALB/c Mice
CT-26 tumor-bearing animals were administered with test compounds at the dose of 0.5 mg/kg, in a dose-volume of 5 ml/kg. Serum samples were collected at designated time points (3.5 h) and frozen at −80° C. till further estimation. Mouse serum samples were diluted appropriately with dilution buffer before estimation of IFNβ utilizing commercially available kits (VeriKine Mouse IFN Beta ELISA, PBL assay science, Catalog No 42400-2). Raw data values were corrected with the dilution factor and finally expressed in pg/mL.

[2] = target: T1, Human STING (Homo sapiens, UniProt Q86WV6, G230A/H232R/R293Q/R71H); experiment: Stimulation of human STING signalling in THP1-Blue ISG SEAP reporter cell line; type: cell-based; details: THP1-Blue ISG cells, 18-20 hours incubation
T1 construct: using human THP1-Blue™ ISG SEAP based reporter cell line (Invivogen); host or cells: THP1-Blue ISG (human monocytic THP-1 derived SEAP reporter line)
Method: Stimulation of Human STING Signalling in THP1 Cell Line
Compounds were tested for their STING activation potential using human THP1-Blue™ ISG SEAP based reporter cell line (Invivogen). Briefly, THP1-Blue ISG cells (100,000 cells/well) in 96 well plate were treated with varying concentrations of test and reference compounds and incubated at 37° C. with 5% CO2 for 18-20 hours. The control untreated cells were also set up. Post incubation, the cell supernatant was tested for SEAP (Secreted Embryonic Alkaline Phosphatase) activity using the QuantiBlue™ substrate reagent (Invivogen). The formation of blue coloured product was quantified by measuring absorbance at wavelength of 620 nm using PheraStar/Tecan reader. The average of duplicate readouts for each data point was plotted in GraphPad prism 6 against the concentration of test or reference compound to calculate EC50 value. The fold of SEAP induction or increase in luminescence at different data points was estimated against the un-stimulated cell control set.

T1 sequence (Q86WV6 whole entry R71H/G230A/H232R/R293Q): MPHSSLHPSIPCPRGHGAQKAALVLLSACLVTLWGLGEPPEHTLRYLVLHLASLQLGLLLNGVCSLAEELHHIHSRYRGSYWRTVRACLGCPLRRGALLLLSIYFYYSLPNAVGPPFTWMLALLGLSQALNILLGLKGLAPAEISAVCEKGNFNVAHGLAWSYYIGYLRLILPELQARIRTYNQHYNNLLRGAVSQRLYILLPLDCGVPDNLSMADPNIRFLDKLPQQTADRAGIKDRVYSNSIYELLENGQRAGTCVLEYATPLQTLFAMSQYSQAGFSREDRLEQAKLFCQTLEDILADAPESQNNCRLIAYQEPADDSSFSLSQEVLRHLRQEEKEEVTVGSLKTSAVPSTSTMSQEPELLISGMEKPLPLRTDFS

EC50 [2]: 1 to 10 nM
SMILES: CCn1nc(C)cc1C(=O)Nc1nc2cc(C(N)=O)cc3c2n1C/C=C/Cn1c(NC(=O)c2cc(C)nn2CC)nc2cc(C(N)=O)cc(c21)OCC(N1CC2CCC(C1)O2)CO3 [Compound 1, (E)-8-(8-oxa-3-azabicyclo[3.2.1]octan-3-yl)-1,15-bis(1-ethyl-3-methyl-1H-pyrazole-5-carboxamido)-8,9,16,19-tetrahydro-7H-6,10-dioxa-2,14,15a,19a-tetraazacyclopentadeca[3,2,1-cd:8,9,10-c′d′]diindene-4,12-dicarboxamide]
IFNβ secretion [1]: 4344 pg/mL
